The assay deals with T1, human liver glycogen phosphorylase a (HLGPa) (Homo sapiens, UniProt P06737).
T1 construct: creating a full-length cDNA fused at the 5′ end to codons for methionine-glycine-alanine-histidine; 6xHis tag (leader Met-Gly-Ala-His6-Gly-Gly) (N); made in house; host or cells: E. coli (bacterial expression plasmid pTXK1007LTev)
T1 sequence (P06737 2-847 limits assumed): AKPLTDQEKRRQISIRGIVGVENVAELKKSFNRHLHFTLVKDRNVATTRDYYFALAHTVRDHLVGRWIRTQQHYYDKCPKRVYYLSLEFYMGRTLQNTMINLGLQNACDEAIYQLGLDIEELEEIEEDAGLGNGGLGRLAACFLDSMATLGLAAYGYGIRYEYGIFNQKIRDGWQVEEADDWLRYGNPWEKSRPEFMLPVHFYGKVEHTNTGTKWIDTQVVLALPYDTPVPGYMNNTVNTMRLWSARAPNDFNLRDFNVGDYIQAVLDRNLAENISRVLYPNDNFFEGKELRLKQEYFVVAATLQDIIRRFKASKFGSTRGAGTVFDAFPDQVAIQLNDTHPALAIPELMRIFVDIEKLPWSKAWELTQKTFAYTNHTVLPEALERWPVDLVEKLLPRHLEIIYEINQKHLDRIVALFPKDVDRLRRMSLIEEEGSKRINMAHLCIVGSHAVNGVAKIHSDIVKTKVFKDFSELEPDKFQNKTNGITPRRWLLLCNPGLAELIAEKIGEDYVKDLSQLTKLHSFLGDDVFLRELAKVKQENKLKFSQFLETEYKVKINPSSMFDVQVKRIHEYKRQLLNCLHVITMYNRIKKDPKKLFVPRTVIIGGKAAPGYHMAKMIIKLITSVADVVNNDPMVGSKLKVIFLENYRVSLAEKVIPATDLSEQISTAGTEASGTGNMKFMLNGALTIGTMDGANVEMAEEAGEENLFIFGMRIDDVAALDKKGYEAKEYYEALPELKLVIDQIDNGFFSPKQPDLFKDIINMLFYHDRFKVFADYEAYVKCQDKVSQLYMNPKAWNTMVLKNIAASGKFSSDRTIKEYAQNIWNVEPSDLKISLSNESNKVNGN
Put plainly: Human liver glycogen phosphorylase a enzymatic activity assay (coupled, fluorescent resorufin readout, with and without 10 mM glucose). The class given is biochemical.

The mark [1] stands for this setting: human liver glycogen phosphorylase a enzymatic activity assay.
The mark [2] stands for this setting: human liver glycogen phosphorylase a, table does not say whether with or without 10 mM glucose.

In general, IC50 refers to the point on the concentration scale where inhibition reaches its midpoint. A high value points to weaker potency.

`COc1ccc(-c2cc(NC(=O)Nc3c(C)cc(C)cc3C)c(C(=O)NC3(C(=O)O)CCCCCC3)s2)cc1` [Example 453, 1-({[5-[4-(methyloxy)phenyl]-3-({[(2,4,6-trimethylphenyl)amino]carbonyl}amino)-2-thienyl]carbonyl}amino)cycloheptanecarboxylic acid] yielded a concentration for half-maximal inhibition (IC50) under setting [1] of 0.004 µM.

`CCc1cccc(CC)c1NC(=O)Nc1cc2ccccc2cc1C(=O)NC(C(=O)O)c1ccccc1` (centres unmarked) [Example 120, {[3-({[(2,6-diethylphenyl)amino]carbonyl}amino)-2-naphthoyl]amino}(phenyl)acetic acid]: under setting [1], half-maximal inhibition (IC50) was put at 24.6 µM.

The compound `Cc1cc(C)c(NC(=O)Nc2sc3c(c2C(=O)N[C@@H](CC(=O)O)C(=O)O)CCCC3)c(C)c1` [Example 133, N-[(2-{[(mesitylamino)carbonyl]amino}-4,5,6,7-tetrahydro-1-benzothien-3-yl)carbonyl]-L-aspartic acid] gave a 50% inhibitory concentration (IC50) under setting [1] of 2.38 µM.

As for `Cc1cc(C)c(NC(=O)Nc2cc(-c3cc(F)cc(F)c3)ccc2C(=O)N[C@H](C(=O)O)C2CCCCC2)c(C)c1` [Example 526, (2S)-Cyclohexyl({[3′,5′-difluoro-3-({[(2,4,6-trimethylphenyl)amino]carbonyl}amino)-4-biphenylyl]carbonyl}amino)ethanoic acid], half-maximal inhibition under setting [1] (IC50) required 0.005 µM.

Turning to `Cc1cccc(C)c1NC(=O)Nc1cc(F)c(F)cc1C(=O)N[C@@H](Cc1ccccc1)C(=O)O` [Example 81, N-[2-({[(2,6-dimethylphenyl)amino]carbonyl}amino)-4,5-difluorobenzoyl]-L-phenylalanine], under setting [1], the IC50 was determined as 14.7 µM.

`O=C(O)CN(Cc1ccccn1)C(=O)c1cc2ccccc2cc1NC(=O)Nc1c(Cl)cc(Cl)cc1Cl` [Example 242, N-(2-pyridinylmethyl)-N-{[3-({[(2,4,6-trichlorophenyl)amino]carbonyl}amino)-2-naphthalenyl]carbonyl}glycine] gave an IC50 under setting [2] of 2.86 µM.

Regarding `COc1ccc(-c2ccc(C(=O)NC3(C(=O)O)CCCCCCC3)c(NC(=O)Nc3c(C)cc(C)cc3C)c2)cc1` [Example 231, 1-({[4′-(Methyloxy)-3-({[(2,4,6-trimethylphenyl)amino]carbonyl}amino)-4-biphenylyl]carbonyl}amino)cyclooctanecarboxylic acid], under setting [2], half-maximal inhibition (IC50) was put at 0.001 µM.

Under setting [2], `O=C(Nc1cc2ccccc2cc1C(=O)N[C@H](C(=O)O)C1CCCCC1)c1ccc(-c2ccc(Cl)cc2Cl)o1` [Example 255, (2S)-cyclohexyl({[3-({[5-(2,4-dichlorophenyl)-2-furanyl]carbonyl}amino)-2-naphthalenyl]carbonyl}amino)ethanoic acid] returned a half-inhibitory concentration (IC50) of 2.6 µM.

`Cc1cc(C)c(NC(=O)Nc2cc3ccccc3cc2C(=O)N2CCN(S(C)(=O)=O)C[C@H]2C(=O)O)c(C)c1` [Example 256, (2S)-4-(methylsulfonyl)-1-{[3-({[(2,4,6-trimethylphenyl)amino]carbonyl}amino)-2-naphthalenyl]carbonyl}-2-piperazinecarboxylic acid]: the IC50 under setting [2] stood at 17.4 µM. This IC50 lies about 6.7-fold higher than the previous one.

`O=C(Nc1cc2ccccc2cc1C(=O)NC1(C(=O)O)CCCC1)Nc1c(Cl)cc(Cl)cc1Cl` [Example 279, 1-({[3-({[(2,4,6-Trichlorophenyl)amino]carbonyl}amino)-2-naphthalenyl]carbonyl}amino)cyclopentanecarboxylic acid] came in with an IC50 under setting [2] of 3 µM. Against the preceding compound, the IC50 is about 5.8-fold lower.

Regarding `O=C(Nc1cc(Cl)ccc1C(=O)N[C@H](C(=O)O)C1CCCCC1)Nc1c(Cl)cccc1Cl` [Example 168, (2S)-({[4-Chloro-2-({[(2,6-dichlorophenyl)amino]carbonyl}amino)phenyl]carbonyl}amino)(cyclohexyl)-ethanoic acid], the IC50 under setting [1] amounted to 0.2 µM. This lies in the sub-micromolar range.

With `C=CCc1cc(C)c(NC(=O)Nc2cc(F)ccc2C(=O)N[C@H](C(=O)O)C2CCCCC2)c(C)c1` [Example 476, (2S)-cyclohexyl[({2-[({[2,6-dimethyl-4-(2-propen-1-yl)phenyl]amino}carbonyl)amino]-4-fluorophenyl}carbonyl)amino]ethanoic acid], under setting [1], half-maximal inhibition (IC50) required 0.03 µM.

Under setting [2], `Cc1cc(C)c(NC(=O)Nc2cc(F)c(F)cc2C(=O)N[C@H](C(=O)O)C2CCCCC2)c(C)c1` [Example 230, (2S)-Cyclohexyl({[4,5-difluoro-2-({[(2,4,6-trimethylphenyl)amino]carbonyl}amino)phenyl]carbonyl}amino)ethanoic acid] registered a 50% inhibitory concentration (IC50) of 0.058 µM. This lies in the double-digit nanomolar range.

The compound `Cc1cc(C)c(NC(=O)Nc2cc3ccccc3cc2C(=O)NC2(C(=O)O)CCC(NCc3ccccc3)CC2)c(C)c1` (centres unmarked) [Example 295, 4-[(phenylmethyl)amino]-1-({[3-({[(2,4,6-trimethylphenyl)amino]carbonyl}amino)-2-naphthalenyl]carbonyl}amino)cyclohexanecarboxylic acid] came in with an IC50 under setting [2] of 5.56 µM. This IC50 lies about 96-fold higher than the previous one.

Under setting [2], `O=C(Nc1cc2ccccc2cc1C(=O)N(Cc1ccccc1)[C@@H](Cc1ccccc1)C(=O)O)Nc1c(Cl)cccc1Cl` [Example 251, N-{[3-({[(2,6-dichlorophenyl)amino]carbonyl}amino)-2-naphthalenyl]carbonyl}-N-(phenylmethyl)phenylalanine] registered a half-maximal inhibitory concentration (IC50) of 12.2 µM.

Under setting [1], `O=C(Nc1sc2c(c1C(=O)N[C@H](C(=O)O)C1CCCCC1)CCCC2)Nc1c(Cl)cccc1Cl` [Example 140, (2S)-cyclohexyl({[2-({[(2,6-dichlorophenyl)amino]carbonyl}amino)-4,5,6,7-tetrahydro-1-benzothien-3-yl]carbonyl}amino)acetic acid] had a half-inhibitory concentration (IC50) of 5.5 µM. That is a single-digit micromolar value.

`Cc1cc(C)c(NC(=O)Nc2cc3ccccc3cc2C(=O)Nc2cccc(C(=O)O)c2)c(C)c1` [Example 495, 3-({[3-({[(2,4,6-trimethylphenyl)amino]carbonyl}amino)-2-naphthalenyl]carbonyl}amino)benzoic acid] had a half-maximal inhibitory concentration (IC50) under setting [1] of 0.3 µM.

Compound `Cc1cc(C)c(NC(=O)Nc2cc(-c3cc(F)c(F)c(F)c3)sc2C(=O)NC2(C(=O)O)CCCCC2)c(C)c1` [Example 535, 1-({[5-(3,4,5-trifluorophenyl)-3-({[(2,4,6-trimethylphenyl)amino]carbonyl}amino)-2-thienyl]carbonyl}amino) cyclohexanecarboxylic acid] yielded an IC50 under setting [1] of 0.206 µM.

`C[C@](NC(=O)c1cc2ccccc2cc1NC(=O)Nc1c(Cl)cc(OC(F)(F)F)cc1Cl)(C(=O)O)C1CCCCC1` [Example 465, 2-cyclohexyl-N-[(3-{[({2,6-dichloro-4-[(trifluoromethyl)oxy]phenyl}amino)carbonyl]amino}-2-naphthalenyl)carbonyl]-L-alanine]: the IC50 under setting [1] worked out at 0.006 µM.

For the compound `CCCCc1cc(C)c(NC(=O)Nc2cc(F)ccc2C(=O)N[C@H](C(=O)O)C2CCCCC2)c(C)c1` [Example 480, (2S)-({[2-({[(4-butyl-2,6-dimethylphenyl)amino]carbonyl}amino)-4-fluorophenyl]carbonyl}amino)(cyclohexyl)ethanoic acid], the half-inhibitory concentration (IC50) under setting [1] turned out to be 0.02 µM.

Regarding `COc1cc(NC(=O)Nc2c(C)cccc2C)c(C(=O)NC(C(=O)O)c2ccccc2)cc1OC` (centres unmarked) [Example 105, {[2-({[(2,6-dimethylphenyl)amino]carbonyl}amino)-4,5-dimethoxybenzoyl]amino}(phenyl)acetic acid], under setting [1], half-maximal inhibition (IC50) required 19.6 µM.

Under setting [1], `Cc1cccc(C)c1NC(=O)Nc1cc(F)c(F)cc1C(=O)N[C@@H](CC(C)C)C(=O)O` [Example 79, N-[2-({[(2,6-dimethylphenyl)amino]carbonyl}amino)-4,5-difluorobenzoyl]-L-leucine] displayed an IC50 of 18.7 µM. This IC50 and that of the compound before are within 1.5-fold of each other.

In turn, `Cc1cc(C)c(NC(=O)Nc2cc3ccccc3cc2C(=O)N[C@H](c2nnn[nH]2)C(C)C)c(C)c1` [Example 340, N-[(1S)-2-methyl-1-(1H-tetrazol-5-yl)propyl]-3-({[(2,4,6-trimethylphenyl)amino]carbonyl}amino)-2-naphthalenecarboxamide] yielded a 50% inhibitory concentration (IC50) under setting [2] of 0.34 µM.

In turn, `Cc1cc(C)c(NC(=O)Nc2cc(-c3ccc(O)cc3)ccc2C(=O)N[C@H](C(=O)O)C2CCCCC2)c(C)c1` [Example 194, (2S)-Cyclohexyl({[4′-hydroxy-3-({[(2,4,6-trimethylphenyl)amino]carbonyl}amino)-4-biphenylyl]carbonyl}amino)ethanoic acid] had a 50% inhibitory concentration (IC50) under setting [1] of 0.011 µM. In other words, the double-digit nanomolar range.

Take `Cc1cc(C)c(NC(=O)Nc2cc(F)ccc2C(=O)N[C@H](C(=O)O)[C@@H](C)OC(C)(C)C)c(C)c1` [Example 226, O-(1,1-Dimethylethyl)-N-{[4-fluoro-2-({[(2,4,6-trimethylphenyl)amino]carbonyl}amino)phenyl]carbonyl}-L-threonine]: the IC50 under setting [2] was 0.53 µM. In other words, the sub-micromolar range.

Under setting [2], `COCCOC[C@H](NC(=O)c1cc2ccccc2cc1NC(=O)Nc1c(C)cc(C)cc1C)C(=O)O` [Example 272, O-[2-(methyloxy)ethyl]-N-{[3-({[(2,4,6-trimethylphenyl)amino]carbonyl}amino)-2-naphthalenyl]carbonyl}-L-serine] had an IC50 of 0.038 µM.

Source of the values: US20070249670A1, “Glycogen Phosphorylase Inhibitor Compounds and Pharmaceutical Compositions Thereof” (SMITHKLINE BEECHAM CORPORATION, priority 2004, published 2007).
